# Laboratory results: patent publication US20220351806A1, “Biomarker Panels for Guiding Dysregulated Host Response Therapy” (Endpoint Health Inc., priority 2019, published 2022)
# Test system: burn-induced SIRS patients
# Assay: Burn-Induced SIRS trial survival analysis, hydrocortisone vs placebo, by patient subtype classifier
# Type: in vivo, human
# Design: lower mortality in the hydrocortisone group when compared to the placebo group / Mortality reduction / Mortality rate: concentration or dose not given beside the values
# Conditions: for Alive / Dead / Mortality rate / Survival rate: Hydro arm; for Alive / Dead / Mortality rate / Survival rate / Mortality Reduction Group / Mortality reduction: day 28; for Mortality Reduction Group: Hydro vs Placebo
# Excerpt: The test expression data from each trial were normalized by the platform normalization matrix described above^13 so that the test data were more consistent with the training data. The classifiers (e.g., the Full Model, the SS Model, the S Model, and the P Model) were then applied to the normalized data such that the patients were classified into A, B, and C subtypes. […] Therefore, each sample in the target samples was normalized independently with the normalization matrix of the sample array platform.
# Survival and mortality rates were calculated at day 28 because survival and mortality labels at other time points were not available. […] Binomial and Chi-squared with continuity correction tests were used to test for the significance of these differences.
# The chi-squared p-value was calculated with continuity correction when computed for 2-by-2 tables.
# [1] = Full Model, Total (all subtypes)
compound,measurement,setting,value
"C[C@]12CCC(=O)C=C1CC[C@@H]1[C@@H]2[C@@H](O)C[C@@]2(C)[C@H]1CC[C@]2(O)C(=O)CO [Hydro, hydrocortisone]",Alive,[1],9
same,Dead,[1],6
same,Mortality rate,[1],40.0%
same,Survival rate,[1],60.0%
same,Mortality Reduction Group,[1],Placebo
same,Mortality reduction,"Full Model, Total (all subtypes), reduction group Placebo",66.7%
same,Alive,"Full Model, subtype A",2
same,Dead,"Full Model, subtype A",1
same,Survival rate,"Full Model, subtype A",66.7%
same,Mortality Reduction Group,"Full Model, subtype A",Placebo
same,Mortality reduction,"Full Model, subtype A, reduction group Placebo",100.0%
same,Alive,"Full Model, subtype B",6
same,Dead,"Full Model, subtype B",1
same,Mortality rate,"Full Model, subtype B",14.3%
same,Survival rate,"Full Model, subtype B",85.7%
same,Mortality Reduction Group,"Full Model, subtype B",Hydro
same,Mortality reduction,"Full Model, subtype B, reduction group Hydro",64.3%
same,Alive,"Full Model, subtype C",1
same,Dead,"Full Model, subtype C",4
same,Mortality rate,"Full Model, subtype C",80.0%
same,Survival rate,"Full Model, subtype C",20.0%
same,Mortality Reduction Group,"Full Model, subtype C",Placebo
same,Mortality reduction,"Full Model, subtype C, reduction group Placebo",100.0%
same,Alive,"Full Model, subtypes CA",3
same,Dead,"Full Model, subtypes CA",5
same,Mortality rate,"Full Model, subtypes CA",62.5%
same,Survival rate,"Full Model, subtypes CA",37.5%
same,Mortality Reduction Group,"Full Model, subtypes CA",Placebo
same,Mortality reduction,"Full Model, subtypes CA, reduction group Placebo",100.0%
same,Alive,"P Model, Total (all subtypes)",9
same,Dead,"P Model, Total (all subtypes)",6
same,Mortality rate,"P Model, Total (all subtypes)",40.0%
same,Survival rate,"P Model, Total (all subtypes)",60.0%
same,Mortality Reduction Group,"P Model, Total (all subtypes)",Placebo
same,Mortality reduction,"P Model, Total (all subtypes), reduction group Placebo",66.7%
same,Alive,"P Model, subtype A",4
same,Dead,"P Model, subtype A",1
same,Mortality rate,"P Model, subtype A",20.0%
same,Survival rate,"P Model, subtype A",80.0%
same,Mortality Reduction Group,"P Model, subtype A",Placebo
same,Mortality reduction,"P Model, subtype A, reduction group Placebo",100.0%
same,Alive,"P Model, subtype B",5
same,Dead,"P Model, subtype B",1
same,Survival rate,"P Model, subtype B",83.3%
same,Mortality Reduction Group,"P Model, subtype B",Hydro
same,Mortality reduction,"P Model, subtype B, reduction group Hydro",50.0%
same,Alive,"P Model, subtype C",0
same,Dead,"P Model, subtype C",4
same,Mortality rate,"P Model, subtype C",100.0%
same,Survival rate,"P Model, subtype C",0.0%
same,Mortality Reduction Group,"P Model, subtype C",Placebo
same,Mortality reduction,"P Model, subtype C, reduction group Placebo",100.0%
same,Alive,"P Model, subtypes CA",4
same,Dead,"P Model, subtypes CA",5
same,Mortality rate,"P Model, subtypes CA",55.6%
same,Survival rate,"P Model, subtypes CA",44.4%
same,Mortality Reduction Group,"P Model, subtypes CA",Placebo
same,Mortality reduction,"P Model, subtypes CA, reduction group Placebo",100.0%
same,Alive,"S Model, Total (all subtypes)",9
same,Dead,"S Model, Total (all subtypes)",6
same,Mortality rate,"S Model, Total (all subtypes)",40.0%
same,Survival rate,"S Model, Total (all subtypes)",60.0%
same,Mortality Reduction Group,"S Model, Total (all subtypes)",Placebo
same,Mortality reduction,"S Model, Total (all subtypes), reduction group Placebo",66.7%
same,Alive,"S Model, subtype A",3
same,Dead,"S Model, subtype A",2
same,Mortality rate,"S Model, subtype A",40.0%
same,Survival rate,"S Model, subtype A",60.0%
same,Mortality Reduction Group,"S Model, subtype A",Placebo
same,Mortality reduction,"S Model, subtype A, reduction group Placebo",58.3%
same,Alive,"S Model, subtype B",6
same,Dead,"S Model, subtype B",1
same,Mortality rate,"S Model, subtype B",14.3%
same,Survival rate,"S Model, subtype B",85.7%
same,Mortality Reduction Group,"S Model, subtype B",Hydro
same,Mortality reduction,"S Model, subtype B, reduction group Hydro",28.6%
same,Alive,"S Model, subtype C",0
same,Dead,"S Model, subtype C",3
same,Mortality rate,"S Model, subtype C",100.0%
same,Survival rate,"S Model, subtype C",0.0%
same,Mortality Reduction Group,"S Model, subtype C",Placebo
same,Mortality reduction,"S Model, subtype C, reduction group Placebo",100.0%
same,Alive,"S Model, subtypes CA",3
same,Dead,"S Model, subtypes CA",5
same,Mortality rate,"S Model, subtypes CA",62.5%
same,Survival rate,"S Model, subtypes CA",37.5%
same,Mortality Reduction Group,"S Model, subtypes CA",Placebo
same,Mortality reduction,"S Model, subtypes CA, reduction group Placebo",84.0%
same,lower mortality in the placebo group when compared to the hydrocortisone therapy group,"SIRS patients, 28-day, C subtype, Full Model",100%
same,lower mortality in the placebo group when compared to the hydrocortisone therapy group,"SIRS patients, 28-day, C subtype, P Model",100%
same,lower mortality in the placebo group when compared to the hydrocortisone therapy group,"SIRS patients, 28-day, C subtype, S Model",100%
same,lower mortality in the placebo group when compared to the hydrocortisone therapy group,"SIRS patients, 28-day, C subtype, SS Model",65%
same,lower mortality in the placebo group when compared to the hydrocortisone therapy group,"SIRS patients, 28-day, subtype A, Full, S, and P Models",100%
same,lower mortality in the hydrocortisone group when compared to the placebo group,"SIRS patients, 28-day, subtype B, S Model",28.6%
same,Alive,"SS Model, Total (all subtypes)",9
same,Dead,"SS Model, Total (all subtypes)",6
same,Mortality rate,"SS Model, Total (all subtypes)",40.0%
same,Survival rate,"SS Model, Total (all subtypes)",60.0%
same,Mortality Reduction Group,"SS Model, Total (all subtypes)",Placebo
same,Mortality reduction,"SS Model, Total (all subtypes), reduction group Placebo",66.7%
same,Alive,"SS Model, subtype A",4
same,Dead,"SS Model, subtype A",2
same,Survival rate,"SS Model, subtype A",66.7%
same,Mortality Reduction Group,"SS Model, subtype A",Placebo
same,Mortality reduction,"SS Model, subtype A, reduction group Placebo",40.0%
same,Alive,"SS Model, subtype B",2
same,Dead,"SS Model, subtype B",0
same,Mortality rate,"SS Model, subtype B",0.0%
same,Survival rate,"SS Model, subtype B",100.0%
same,Mortality Reduction Group,"SS Model, subtype B",Placebo
same,Alive,"SS Model, subtype C",3
same,Dead,"SS Model, subtype C",4
same,Mortality rate,"SS Model, subtype C",57.1%
same,Survival rate,"SS Model, subtype C",42.9%
same,Mortality Reduction Group,"SS Model, subtype C",Placebo
same,Mortality reduction,"SS Model, subtype C, reduction group Placebo",65.0%
same,Alive,"SS Model, subtypes CA",7
same,Dead,"SS Model, subtypes CA",6
same,Mortality rate,"SS Model, subtypes CA",46.2%
same,Survival rate,"SS Model, subtypes CA",53.8%
same,Mortality Reduction Group,"SS Model, subtypes CA",Placebo
same,Mortality reduction,"SS Model, subtypes CA, reduction group Placebo",56.7%
